Article doi:10.1101/2023.11.24.568596v1 (biorxiv, 2023)

Tests used:
Conditions in all cases: binder
OSR1 = OSR1 (Homo sapiens, UniProt O95747)
PAK4 = PAK4 (Homo sapiens, UniProt O96013)
BRAF = BRAF (Homo sapiens, UniProt P15056)
EphB1 = molecular target: T1, EphB1 (Homo sapiens, UniProt P54762)
T1 sequence (P54762 1-984): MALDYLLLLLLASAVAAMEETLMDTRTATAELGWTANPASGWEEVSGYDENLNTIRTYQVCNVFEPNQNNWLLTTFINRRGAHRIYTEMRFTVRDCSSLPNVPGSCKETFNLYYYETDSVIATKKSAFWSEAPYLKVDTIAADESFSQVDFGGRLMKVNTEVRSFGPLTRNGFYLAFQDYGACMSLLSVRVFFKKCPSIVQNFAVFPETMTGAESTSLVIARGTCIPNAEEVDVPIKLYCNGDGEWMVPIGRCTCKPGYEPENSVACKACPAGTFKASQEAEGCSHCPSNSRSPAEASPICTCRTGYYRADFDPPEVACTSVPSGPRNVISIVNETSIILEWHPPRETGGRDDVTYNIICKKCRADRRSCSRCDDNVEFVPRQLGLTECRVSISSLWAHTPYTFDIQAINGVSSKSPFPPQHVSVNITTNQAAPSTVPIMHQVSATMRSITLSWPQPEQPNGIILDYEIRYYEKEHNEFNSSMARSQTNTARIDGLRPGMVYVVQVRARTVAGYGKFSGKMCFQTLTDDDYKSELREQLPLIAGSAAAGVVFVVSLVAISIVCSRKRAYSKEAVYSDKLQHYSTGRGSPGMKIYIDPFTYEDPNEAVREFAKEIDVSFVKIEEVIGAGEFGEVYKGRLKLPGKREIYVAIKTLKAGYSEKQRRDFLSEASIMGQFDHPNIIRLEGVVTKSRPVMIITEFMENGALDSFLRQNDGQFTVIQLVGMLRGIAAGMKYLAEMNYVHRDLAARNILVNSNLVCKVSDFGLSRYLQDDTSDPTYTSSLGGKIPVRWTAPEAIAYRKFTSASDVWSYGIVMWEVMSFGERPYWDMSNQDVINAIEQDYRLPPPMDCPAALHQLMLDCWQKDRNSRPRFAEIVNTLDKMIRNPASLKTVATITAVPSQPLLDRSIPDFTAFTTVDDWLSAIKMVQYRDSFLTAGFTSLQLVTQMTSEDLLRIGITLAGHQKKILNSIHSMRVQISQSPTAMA

CaMK2d = CaMK2d (Homo sapiens, UniProt Q13557)
Chain of CaMK2d (Q13557 whole entry): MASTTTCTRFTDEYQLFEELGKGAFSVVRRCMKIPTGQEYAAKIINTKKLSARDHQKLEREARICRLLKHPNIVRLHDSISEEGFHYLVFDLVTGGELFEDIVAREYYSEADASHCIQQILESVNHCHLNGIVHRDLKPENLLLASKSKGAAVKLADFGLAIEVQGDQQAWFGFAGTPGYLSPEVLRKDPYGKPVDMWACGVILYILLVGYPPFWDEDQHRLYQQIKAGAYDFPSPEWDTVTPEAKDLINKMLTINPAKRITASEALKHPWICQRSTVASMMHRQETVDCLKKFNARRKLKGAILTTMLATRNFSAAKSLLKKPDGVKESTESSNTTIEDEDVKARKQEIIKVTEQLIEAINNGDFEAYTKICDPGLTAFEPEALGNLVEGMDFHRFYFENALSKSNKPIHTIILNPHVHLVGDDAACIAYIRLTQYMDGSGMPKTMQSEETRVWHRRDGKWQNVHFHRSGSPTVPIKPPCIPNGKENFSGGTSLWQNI

DAPK1 = DAPK1 (Homo sapiens, UniProt P53355)
Chain of DAPK1 (P53355 whole entry): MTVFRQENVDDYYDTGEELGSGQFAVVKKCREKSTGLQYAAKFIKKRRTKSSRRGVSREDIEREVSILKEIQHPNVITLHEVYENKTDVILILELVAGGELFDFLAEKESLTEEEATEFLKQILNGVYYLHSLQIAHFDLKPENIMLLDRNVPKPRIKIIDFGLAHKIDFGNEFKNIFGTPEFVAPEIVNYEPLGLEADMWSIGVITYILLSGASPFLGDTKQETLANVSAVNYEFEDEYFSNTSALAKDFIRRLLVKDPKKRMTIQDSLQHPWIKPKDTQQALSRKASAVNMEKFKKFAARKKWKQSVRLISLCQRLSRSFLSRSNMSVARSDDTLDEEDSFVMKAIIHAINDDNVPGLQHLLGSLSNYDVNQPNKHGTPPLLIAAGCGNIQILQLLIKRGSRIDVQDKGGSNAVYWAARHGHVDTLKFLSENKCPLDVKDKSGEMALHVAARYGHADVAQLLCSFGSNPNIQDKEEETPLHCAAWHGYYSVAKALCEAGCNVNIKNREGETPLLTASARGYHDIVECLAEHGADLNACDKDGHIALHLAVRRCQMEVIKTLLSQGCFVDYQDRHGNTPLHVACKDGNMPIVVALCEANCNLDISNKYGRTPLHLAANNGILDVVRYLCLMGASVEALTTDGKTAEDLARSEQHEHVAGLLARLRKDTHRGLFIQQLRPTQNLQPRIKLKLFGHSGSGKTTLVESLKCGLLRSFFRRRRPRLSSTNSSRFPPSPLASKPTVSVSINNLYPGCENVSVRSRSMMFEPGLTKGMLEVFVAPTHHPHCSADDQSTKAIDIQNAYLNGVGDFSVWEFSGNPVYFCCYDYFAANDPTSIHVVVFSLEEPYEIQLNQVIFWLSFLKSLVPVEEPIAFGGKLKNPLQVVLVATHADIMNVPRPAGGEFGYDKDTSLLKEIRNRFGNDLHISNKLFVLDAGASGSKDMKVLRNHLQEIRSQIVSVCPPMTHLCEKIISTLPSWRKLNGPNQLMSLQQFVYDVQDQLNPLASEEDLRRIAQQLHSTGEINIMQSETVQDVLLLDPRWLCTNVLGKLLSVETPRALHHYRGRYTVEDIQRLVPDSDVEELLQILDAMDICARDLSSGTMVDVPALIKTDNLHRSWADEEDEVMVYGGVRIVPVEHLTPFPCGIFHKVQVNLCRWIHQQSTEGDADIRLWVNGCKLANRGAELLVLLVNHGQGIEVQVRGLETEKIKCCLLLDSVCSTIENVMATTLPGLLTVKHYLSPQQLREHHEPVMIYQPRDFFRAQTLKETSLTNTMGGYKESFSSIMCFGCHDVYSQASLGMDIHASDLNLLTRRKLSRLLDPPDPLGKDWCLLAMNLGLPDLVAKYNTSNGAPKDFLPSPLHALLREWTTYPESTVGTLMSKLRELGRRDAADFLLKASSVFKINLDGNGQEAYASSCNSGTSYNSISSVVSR

MSK1b = MSK1b (Homo sapiens, UniProt O75582)
Chain of MSK1b (O75582 whole entry): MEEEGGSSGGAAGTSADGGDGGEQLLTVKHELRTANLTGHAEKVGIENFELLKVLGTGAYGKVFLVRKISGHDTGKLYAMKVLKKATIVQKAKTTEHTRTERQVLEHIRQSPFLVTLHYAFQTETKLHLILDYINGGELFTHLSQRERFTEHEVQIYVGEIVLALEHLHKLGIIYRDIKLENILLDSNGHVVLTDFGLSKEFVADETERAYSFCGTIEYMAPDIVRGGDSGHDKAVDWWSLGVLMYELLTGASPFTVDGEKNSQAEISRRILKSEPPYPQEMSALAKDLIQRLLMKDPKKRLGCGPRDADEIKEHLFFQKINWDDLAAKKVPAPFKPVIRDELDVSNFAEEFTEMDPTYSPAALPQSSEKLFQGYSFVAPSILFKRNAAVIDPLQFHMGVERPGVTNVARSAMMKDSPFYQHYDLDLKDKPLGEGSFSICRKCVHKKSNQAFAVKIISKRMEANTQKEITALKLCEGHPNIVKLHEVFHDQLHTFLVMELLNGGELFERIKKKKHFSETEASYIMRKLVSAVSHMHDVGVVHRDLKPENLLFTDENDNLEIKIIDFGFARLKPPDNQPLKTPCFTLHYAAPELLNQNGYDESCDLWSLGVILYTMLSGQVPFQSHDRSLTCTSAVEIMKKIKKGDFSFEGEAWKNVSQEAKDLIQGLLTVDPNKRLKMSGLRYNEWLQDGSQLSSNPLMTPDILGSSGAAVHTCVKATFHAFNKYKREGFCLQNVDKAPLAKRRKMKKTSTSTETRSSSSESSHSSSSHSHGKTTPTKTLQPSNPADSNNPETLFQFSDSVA

MAPKAPK2 = MAPKAPK2 (Homo sapiens, UniProt P49137)
Chain of MAPKAPK2 (P49137 whole entry): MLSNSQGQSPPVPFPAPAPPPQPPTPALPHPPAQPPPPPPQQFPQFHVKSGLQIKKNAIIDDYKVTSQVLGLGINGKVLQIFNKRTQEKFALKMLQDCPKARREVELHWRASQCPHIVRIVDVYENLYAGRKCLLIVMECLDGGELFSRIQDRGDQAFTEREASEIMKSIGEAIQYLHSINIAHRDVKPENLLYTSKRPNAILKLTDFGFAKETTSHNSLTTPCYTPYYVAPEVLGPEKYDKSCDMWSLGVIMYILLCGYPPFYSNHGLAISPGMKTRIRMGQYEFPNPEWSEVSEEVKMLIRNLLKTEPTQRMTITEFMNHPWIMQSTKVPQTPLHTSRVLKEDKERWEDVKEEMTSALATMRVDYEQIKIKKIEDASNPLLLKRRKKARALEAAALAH

CaMK4 = molecular target: T2, CaMK4 (Homo sapiens, UniProt Q16566)
T2 sequence (Q16566 1-473): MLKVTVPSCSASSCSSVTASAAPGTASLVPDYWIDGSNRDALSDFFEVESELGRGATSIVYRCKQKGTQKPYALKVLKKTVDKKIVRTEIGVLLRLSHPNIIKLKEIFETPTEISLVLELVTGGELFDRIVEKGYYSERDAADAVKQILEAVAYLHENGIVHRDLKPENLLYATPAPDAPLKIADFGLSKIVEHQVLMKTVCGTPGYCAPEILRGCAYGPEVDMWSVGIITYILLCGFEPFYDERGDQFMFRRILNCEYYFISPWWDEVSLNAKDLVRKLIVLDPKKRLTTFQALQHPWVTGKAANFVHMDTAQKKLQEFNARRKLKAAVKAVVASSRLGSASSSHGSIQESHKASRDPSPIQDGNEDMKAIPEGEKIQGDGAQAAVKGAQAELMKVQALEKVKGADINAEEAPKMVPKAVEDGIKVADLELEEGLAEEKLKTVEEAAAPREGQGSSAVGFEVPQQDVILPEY

DMPK1 = molecular target: T3, DMPK1 (Homo sapiens, UniProt Q09013)
T3 sequence (Q09013 1-629): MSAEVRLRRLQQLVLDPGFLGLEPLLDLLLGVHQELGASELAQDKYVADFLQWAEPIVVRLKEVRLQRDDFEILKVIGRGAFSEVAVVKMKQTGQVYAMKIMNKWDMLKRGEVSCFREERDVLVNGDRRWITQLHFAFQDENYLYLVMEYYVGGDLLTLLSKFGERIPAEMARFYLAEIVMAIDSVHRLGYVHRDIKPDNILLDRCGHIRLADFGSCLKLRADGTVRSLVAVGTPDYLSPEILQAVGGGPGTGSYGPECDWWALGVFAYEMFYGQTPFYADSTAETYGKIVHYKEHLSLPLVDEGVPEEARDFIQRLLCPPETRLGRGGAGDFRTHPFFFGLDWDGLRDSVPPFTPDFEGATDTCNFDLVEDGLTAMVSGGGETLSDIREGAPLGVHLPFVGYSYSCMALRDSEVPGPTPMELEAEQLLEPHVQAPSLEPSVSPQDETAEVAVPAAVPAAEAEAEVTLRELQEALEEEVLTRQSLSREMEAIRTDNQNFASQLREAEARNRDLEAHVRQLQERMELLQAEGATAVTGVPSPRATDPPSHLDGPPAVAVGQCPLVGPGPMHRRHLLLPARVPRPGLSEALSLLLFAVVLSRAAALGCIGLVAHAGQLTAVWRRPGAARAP

Chain of OSR1 (O95747 whole entry): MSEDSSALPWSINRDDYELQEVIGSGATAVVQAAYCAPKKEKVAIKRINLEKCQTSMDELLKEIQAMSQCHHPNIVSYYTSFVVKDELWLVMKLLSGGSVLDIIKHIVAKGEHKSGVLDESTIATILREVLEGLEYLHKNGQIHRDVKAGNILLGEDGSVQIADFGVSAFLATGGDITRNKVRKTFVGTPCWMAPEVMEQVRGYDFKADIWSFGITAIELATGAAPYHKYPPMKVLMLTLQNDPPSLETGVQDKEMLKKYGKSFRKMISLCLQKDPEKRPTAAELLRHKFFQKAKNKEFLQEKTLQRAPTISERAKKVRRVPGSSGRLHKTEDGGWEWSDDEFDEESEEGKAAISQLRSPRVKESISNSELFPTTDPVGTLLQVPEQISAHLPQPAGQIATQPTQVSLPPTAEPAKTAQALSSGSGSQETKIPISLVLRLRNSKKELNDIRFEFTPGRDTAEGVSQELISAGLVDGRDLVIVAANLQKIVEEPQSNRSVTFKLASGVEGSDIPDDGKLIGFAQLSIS
Chain of PAK4 (O96013 whole entry): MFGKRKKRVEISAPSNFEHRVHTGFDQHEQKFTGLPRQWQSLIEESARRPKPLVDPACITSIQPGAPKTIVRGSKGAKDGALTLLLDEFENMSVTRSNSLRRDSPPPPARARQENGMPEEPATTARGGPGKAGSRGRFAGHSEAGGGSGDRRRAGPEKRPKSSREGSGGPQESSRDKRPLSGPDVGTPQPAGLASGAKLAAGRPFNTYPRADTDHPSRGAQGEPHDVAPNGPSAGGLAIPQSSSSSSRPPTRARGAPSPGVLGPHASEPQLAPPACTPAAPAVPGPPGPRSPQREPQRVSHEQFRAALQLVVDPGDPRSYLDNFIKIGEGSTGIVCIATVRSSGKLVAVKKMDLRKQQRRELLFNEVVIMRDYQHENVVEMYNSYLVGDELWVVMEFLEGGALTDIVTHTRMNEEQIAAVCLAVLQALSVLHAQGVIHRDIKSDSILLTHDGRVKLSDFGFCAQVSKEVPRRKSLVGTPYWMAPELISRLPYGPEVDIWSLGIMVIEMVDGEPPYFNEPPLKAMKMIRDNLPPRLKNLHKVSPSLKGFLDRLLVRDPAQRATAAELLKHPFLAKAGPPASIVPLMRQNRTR
Chain of BRAF (P15056 whole entry): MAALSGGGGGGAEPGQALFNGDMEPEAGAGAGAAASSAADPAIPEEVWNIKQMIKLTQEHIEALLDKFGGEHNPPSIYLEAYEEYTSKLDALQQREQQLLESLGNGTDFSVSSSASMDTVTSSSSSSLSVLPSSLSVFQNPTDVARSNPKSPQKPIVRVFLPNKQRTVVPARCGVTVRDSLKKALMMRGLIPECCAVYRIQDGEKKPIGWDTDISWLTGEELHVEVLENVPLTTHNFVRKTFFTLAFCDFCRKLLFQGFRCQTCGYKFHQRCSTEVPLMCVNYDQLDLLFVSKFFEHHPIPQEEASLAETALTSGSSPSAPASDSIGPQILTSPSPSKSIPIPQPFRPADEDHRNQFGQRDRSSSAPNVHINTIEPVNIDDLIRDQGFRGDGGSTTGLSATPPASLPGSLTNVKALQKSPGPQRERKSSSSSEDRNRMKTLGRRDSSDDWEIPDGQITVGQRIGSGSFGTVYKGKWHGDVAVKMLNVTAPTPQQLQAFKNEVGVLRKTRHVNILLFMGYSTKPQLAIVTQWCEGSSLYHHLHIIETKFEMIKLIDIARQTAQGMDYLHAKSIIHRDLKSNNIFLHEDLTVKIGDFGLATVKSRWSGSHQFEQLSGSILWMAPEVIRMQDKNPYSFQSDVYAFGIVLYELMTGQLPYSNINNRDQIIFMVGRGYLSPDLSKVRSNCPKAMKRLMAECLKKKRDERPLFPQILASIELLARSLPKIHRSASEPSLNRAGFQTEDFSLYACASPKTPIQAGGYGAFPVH

Cc1cccc(-c2ccc(-c3cc4cnc(Nc5cc(C(F)(F)F)ccc5C)nc4n(CCCCN)c3=O)c(Cl)c2)n1 [compound 28, 8-(4-Aminobutyl)-6-(2-chloro-4-(6-methylpyridin-2-yl)phenyl)-2-((2-methyl-5-(trifluoromethyl)phenyl)amino)pyrido[2,3-d]pyrimidin-7(8H)-one]
ΔTm 28 (OSR1): 0.1 °C | ΔTm 28 (PAK4): 3.5 °C | ΔTm 28 (BRAF): 3.2 °C | ΔTm 28 (EphB1): 5.1 °C | ΔTm 28 (CaMK2d): -0.4 °C | ΔTm 28 (DAPK1): -0.7 °C | ΔTm 28 (MSK1b): 1.4 °C | ΔTm 28 (MAPKAPK2): -0.2 °C | ΔTm 28 (CaMK4): 3.9 °C | ΔTm 28 (DMPK1): -2.4 °C

Cc1cccc(-c2ccc(-c3cc4cnc(Nc5ccc(CCCO)cc5)nc4n(CCCCN)c3=O)c(Cl)c2)n1 [compound 30, 8-(4-Aminobutyl)-6-(2-chloro-4-(6-methylpyridin-2-yl)phenyl)-2-((4-(3-hydroxypropyl)phenyl)amino)pyrido[2,3-d]pyrimidin-7(8H)-one]
ΔTm 30 (OSR1): 2.3 °C | ΔTm 30 (PAK4): 9.0 °C | ΔTm 30 (BRAF): 6.2 °C | ΔTm 30 (EphB1): 6.5 °C | ΔTm 30 (CaMK2d): 0.1 °C | ΔTm 30 (DAPK1): -0.7 °C | ΔTm 30 (MSK1b): 3.6 °C | ΔTm 30 (MAPKAPK2): -0.3 °C | ΔTm 30 (CaMK4): 5.5 °C | ΔTm 30 (DMPK1): -5.0 °C

Cc1cccc(-c2ccc(-c3cc4cnc(Nc5ccc(C)c(O)c5)nc4n(CCCCN)c3=O)c(Cl)c2)n1 [compound 32, 8-(4-Aminobutyl)-6-(2-chloro-4-(6-methylpyridin-2-yl)phenyl)-2-((3-hydroxy-4-methylphenyl)amino)pyrido[2,3-d]pyrimidin-7(8H)-one]
ΔTm 32 (OSR1): 3.1 °C | ΔTm 32 (PAK4): 7.9 °C | ΔTm 32 (BRAF): 5.7 °C | ΔTm 32 (EphB1): 6.6 °C | ΔTm 32 (CaMK2d): 0.0 °C | ΔTm 32 (DAPK1): -0.9 °C | ΔTm 32 (MSK1b): 4.6 °C | ΔTm 32 (MAPKAPK2): -0.1 °C | ΔTm 32 (CaMK4): 4.9 °C | ΔTm 32 (DMPK1): -4.5 °C

Cc1cccc(-c2ccc(-c3cc4cnc(NCCCN5CCCC5=O)nc4n(CCCCN)c3=O)c(Cl)c2)n1 [compound 27, MR30]
ΔTm MR30 (27) (OSR1): -1.1 °C | ΔTm MR30 (27) (PAK4): 2.8 °C | ΔTm MR30 (27) (BRAF): 2.6 °C | ΔTm MR30 (27) (EphB1): 3.0 °C | ΔTm MR30 (27) (CaMK2d): -0.5 °C | ΔTm MR30 (27) (DAPK1): -1.2 °C | ΔTm MR30 (27) (MSK1b): -1.4 °C | ΔTm MR30 (27) (MAPKAPK2): -0.3 °C | ΔTm MR30 (27) (CaMK4): 2.5 °C | ΔTm MR30 (27) (DMPK1): -1.4 °C

Cc1cccc(-c2ccc(-c3cc4cnc(Nc5ccc(O)cc5)nc4n(CCCCN)c3=O)c(Cl)c2)n1 [compound 31, 8-(4-Aminobutyl)-6-(2-chloro-4-(6-methylpyridin-2-yl)phenyl)-2-((4-hydroxyphenyl)amino) pyrido[2,3-d]pyrimidin-7(8H)-one]
ΔTm 31 (OSR1): 3.1 °C | ΔTm 31 (PAK4): 8.5 °C | ΔTm 31 (BRAF): 5.0 °C | ΔTm 31 (EphB1): 6.6 °C | ΔTm 31 (CaMK2d): -0.1 °C | ΔTm 31 (DAPK1): -0.6 °C | ΔTm 31 (MSK1b): 4.3 °C | ΔTm 31 (MAPKAPK2): -0.1 °C | ΔTm 31 (CaMK4): 5.0 °C | ΔTm 31 (DMPK1): -2.0 °C

Cc1cccc(-c2ccc(-c3cc4cnc(NCCCN5CCNCC5)nc4n(CCCCN)c3=O)c(Cl)c2)n1 [compound 29, 8-(4-Aminobutyl)-6-(2-chloro-4-(6-methylpyridin-2-yl)phenyl)-2-((3-(piperazin-1-yl)propyl)amino)pyrido[2,3-d]pyrimidin-7(8H)-one]
ΔTm 29 (OSR1): 0.3 °C | ΔTm 29 (PAK4): 2.6 °C | ΔTm 29 (BRAF): 1.5 °C | ΔTm 29 (EphB1): 4.3 °C | ΔTm 29 (CaMK2d): -0.1 °C | ΔTm 29 (DAPK1): -0.9 °C | ΔTm 29 (MSK1b): 0.2 °C | ΔTm 29 (MAPKAPK2): -0.2 °C | ΔTm 29 (CaMK4): 1.5 °C | ΔTm 29 (DMPK1): -1.3 °C
